{"source": "patent US20020091082A1", "about": "“Methods of modulating symptoms of hypertension” (priority 2000, published 2002)", "key": {"Akt": {"system": "Akt", "assay": "Stretch-induced Akt phosphorylation in retinal pericytes", "format": "cell-based, bovine", "conditions": "cyclic stretch", "method": "The mechanism of stretch-induced Akt phosphorylation was evaluated using two PI3 kinase inhibitors (LY294002 and wortmannin), the MEK1 inhibitor PD98059 and the tyrosine kinase inhibitor genistein.\n(§1) Mechanical Stretch: For pericyte experiments, cells were plated on 6-well flexiblebottom culture plates coated with collagen (Flexcell Corp.,Mckeepsport, Pa.). After 2 days, media were changed to DMEM containing 1% calf serum and the cells incubated overnight. Cells were then subjected to uniform radial and circumferential strain in 5% CO2 at 37° C. using a computer-controlled, vacuum stretch apparatus (Flexcer Cell Strain Unit; Flexcel Corp.). A physiologic stretch frequency of 60 cpm and 3-20% prolongation of elastomer bottomed plates were used as previously described.\nERK1/2 and Akt phosphorylation: Cells were washed with cold PBS and lysed in 1X Laemmli buffer containing protease inhibitors as described above. Cell lysates were heated to 95 °C for 2 min and equal volume of lysates were subjected to SDS-PAGE under reducing conditions. The blots were incubated with anti-phosphospecific ERK1(p44)/ERK2(p42) or anti-phosphospecific Akt antibody (New England Biolabs, Beverly, Ma.). Lane loading differences were normalized by reblotting with non-phosphorylation-specific (total) anti ERK1 antibody (Santa Cruz Biological) or anti-total Akt antibody(New England Biolabs)."}, "VEGF mRNA": {"system": "VEGF mRNA", "assay": "Stretch-induced VEGF mRNA expression in bovine retinal pericytes (Northern blot)", "format": "cell-based", "conditions": "BRPC; for inhibition of stretch-induced VEGF mRNA expression: 9%/60 cpm cyclic stretch 3 hours, genistein 20 uM, adenovirus 1×10^8 pfu/ml; for inhibition of stretch-induced VEGF mRNA expression / effect on stretch-induced VEGF mRNA expression: LY294002 50 uM, wortmannin 100 nM; for effect on basal VEGF mRNA expression: unstretched; for effect on stretch-induced VEGF mRNA expression: 9%/60 cpm cyclic stretch, PD98059 20 uM, GF109203X 5 uM", "method": "To determine the mechanism by which stretch increased VEGF mRNA expression, inhibitors of MEK1 (PD98059, 20 uM), classical/novel PKC isoforms (GF109203X, 5 uM), tyrosine phosphorylation (genistein, 20 uM) and PI3 kinase (wortmannin, 100 nM and LY294002, 50 uM) were evaluated. In all experiments 9%/60 cpm cyclic stretch for 3 hours induced VEGF mRNA expression. Inhibition of ERK1/2 utilizing PD98059 had little effect on either basal or stretch-induce expression of VEGF. […] LY294002 and wortmannin inhibited stretched induced VEGF mRNA expression by 85±20% (p=0.039) and 96±25% (p=0.035), respectively.\nCell culture: Primary cultures of bovine retinal pericytes (BRPC) were isolated by homogenization and a series of filtration steps. BRPC were cultured in DMEM containing 5.5 mM glucose and 20% FBS. The cells were maintained in 5% CO2 at 37 °C and media were changed every three days. Cells were characterized for their homogeneity by immunoreactivity with monoclonal antibody 3G5. Cells were plated at a density of 2×10^4 cells/cm2 and passaged when confluent. The media were changed every three days and only cells from passages 2-5 were used for experiments.\nas §1\nRNA Extraction: RNA was extracted using the guanidinium thiocynate method. RNA purity was determined by the ratio of optical density (OD) measured at 260 & 280 nm and RNA quantity was estimated using OD measured at 260 nm.\nNorthern Blot Analysis: Northern blot analysis was performed on 15 μg total RNA per lane after 1% agarose-2M formaldehyde gel electrophoresis and subsequent capillary transfer to Biodyne nylon membranes (Pall BioSupport, East Hills, N.Y.). Membranes underwent ultraviolet crosslinking using a UV Stratalinker 2400 (STRATAGENE, La Jolla, Calif.). Radioactive probes were generated using Amersham Megaprime labeling kits (Buckinghamshire, England) and 32PdCTP (NEN Life Science Products Inc., Boston, Mass.). Blots were pre-hybridized, hybridized and washed 4 times in 0.5×SSC, 5% SDS at 65 °C for 1 hour in a rotating hybridization oven (Robbins Scientific Corporation, Sunnyvale, Calif.). All signals were analyzed using a computing PhosphorImager with ImageQuant software analysis (Molecular Dynamics, Sunnyvale, Calif.). The signal for each sample was normalized by re-probing the same blot using 36B4 cDNA control probe."}, "ERK1/2": {"system": "ERK1/2", "assay": "Stretch-induced ERK1/2 phosphorylation in retinal pericytes", "format": "cell-based, bovine", "method": "To determine what pathways were activated in retinal pericytes exposed to cardiac profile cyclic stretch, ERK phosphorylation, PI3 kinase activity and Akt phosphorylation were evaluated. Stretch induced a rapid increase in ERK 1/ 2 phosphorylation which was initially evident after 2 minutes, maximal at 5 min (ERK1=20-fold; ERK2=8.9-fold increase) and still maintained above baseline even after 60 min (ERK1=6.3-fold; ERK2=4.5-fold).\nFurther confirmation that stretch-induced ERK1/2 activation was not involved in mediating stretch-induced VEGF expression was obtained by assaying ERK1/2 phosphorylation after exposure to the inhibitors described herein. The inhibitor response for stretch-induced ERK1/2 phosphorylation was opposite that observed for stretch-induced VEGF expression. Stretch-induced ERK1/2 phosphorylation was reduced by inhibition of MEK1 (85+10.8%, 88+7.1%, p<0.05) or classical/novel PKC (83+23%, 84+7.1% p<0.05) but relatively unaffected by inhibition of PI3 kinase or tyrosine phosphorylation. Adenovirus infection with dominant negative ERK, wild type active ERK63 or b-galactosidase control had no effect on stretch-induced VEGF expression.\nMechanical Stretch: For pericyte experiments, cells were plated on 6-well flexiblebottom culture plates coated with collagen (Flexcell Corp.,Mckeepsport, Pa.). […]"}, "[1]": {"system": "bovine retinal endothelial cells (BRECs)", "assay": "3H-thymidine incorporation (mitogenesis) under cyclic stretch", "format": "cell-based", "method": "Cells can respond to VEGF by proliferation. A measure of proliferation is the rate of cell progression through mitosis. Cells transiting S phase will incorporate ^3H-thymidine.\nTo determine if the effects of cyclic stretching on mitogenesis are mediated by VEGF signaling, cells were stretched while treated with a VEGF neutralizing antibody.\n(§2) Cells were seeded on 6-well flexible-bottom plates coated with bovine fibronectin and subjected to uniform radial and circumferential strain using a computercontrolled, vacuum stretch apparatus (Flexcer Cell Strain Unit; Flexcel Corp.) with cardiac profile at a frequency of 60 cpm.\nConfluent cells were placed in 1% calf serum for 24 hours and then subjected to 9%/60 cpm cyclic stretch for 24 hrs. During the last 12 hrs, VEGF (25 ng/ml final). VEGF neutralizing antibody (10 μg/ml was added 30 minutes prior to stretch onset. ^3H-thymidine (0.5 μCi/ml)was added during the last 6 hours."}, "retinal VEGF mRNA": {"system": "retinal VEGF mRNA", "assay": "Retinal VEGF mRNA in spontaneously hypertensive rats (multiplex RT-PCR)", "format": "in vivo, rat", "conditions": "SHR rats; captopril 100 mg/kg/day or candesartan cilexetil 10 mg/kg/day in drinking water for one week", "method": "(§3) 12 week-old male spontaneously hypertensive rats (SHR) and weight-matched Wistar-Kyoto (WKY) control animals were used. Systolic and diastolic blood pressures were measured from each animal by tail cuff. Animals were treated with or without 100 mg/kg/day captopril or 10 mg/kg/day candesartan cilexetil for one week. Drugs were administered in drinking water. Blood measurements were repeated after therapy and the retinas individually isolated.\n(§4) RNA was isolated from individual retinas and RNA reverse transcribed at 42° C. using random hexamer primers. PCR amplification was carried out using a 55° C. annealing temperature. The samples were separated on a 6% nondenaturing polyacrylamide gel. The gel was dried and analyzed by PhosphorImager. Signal intensity was normalized using rat ribosomal phosphoprotein P0 (RRRPP0) as an internal standard."}, "[2]": {"assay": "Blood pressure in spontaneously hypertensive rats (tail cuff)", "format": "in vivo, rat", "conditions": "SHR rats, treatment for one week in drinking water", "method": "as §3"}, "retinal KDR mRNA": {"system": "retinal KDR mRNA", "assay": "Retinal KDR mRNA in spontaneously hypertensive rats (multiplex RT-PCR)", "format": "in vivo, rat", "conditions": "SHR rats, captopril 100 mg/kg/day or candesartan cilexetil 10 mg/kg/day in drinking water for one week", "method": "To determine the effect of hypertension on KDR levels in vivo, KDR mRNA was quantified in hypertensive rats (SHR) as well as weight-matched controls (WKY). […] Captopril is an angiotensin converting enzyme (ACE) inhibitor. Candesartan Cilexetil is an angiotensin II antagonist.\nas §3, §4"}, "KDR mRNA [3]": {"system": "KDR mRNA", "assay": "Angiotensin II-induced KDR mRNA expression", "format": "cell-based", "from_the_text": "(§5) Cyclic stretch induces KDR mRNA at least 2.2 fold. […] In contrast, angiotensin II which also induces KDR mRNA is blocked from doing so by candesartan cilexetil, an AT1 receptor antagonist. Thus, unlike Angiotensin II induced KDR expression, stretch induced KDR expression is not mediated through the AT1 receptor pathway."}, "KDR mRNA [4]": {"system": "KDR mRNA", "assay": "Cyclic stretch-induced KDR mRNA expression", "format": "cell-based, bovine", "method": "as §5, §2"}}, "note": "Entries after “also recorded” stand apart in the source; their conditions may differ. Where two headings read alike, the source gives them in different places."}
{"compound": "COC[C@H]1OC(=O)c2coc3c2[C@@]1(C)C1=C(C3=O)[C@@H]2CCC(=O)[C@@]2(C)C[C@H]1OC(C)=O", "note": "[wortmannin]", "values": [{"measurement": "inhibition of stretch-induced Akt phosphorylation", "setting": "Akt", "value": "119+18%"}, {"measurement": "inhibition of stretch-induced VEGF mRNA expression", "setting": "VEGF mRNA", "value": "96±25", "unit": "%"}]}
{"compound": "O=c1c(-c2ccc(O)cc2)coc2cc(O)cc(O)c12", "note": "[genistein]", "values": [{"measurement": "effect on stretch-induced ERK1/2 phosphorylation", "setting": "ERK1/2", "value": "lack of response"}, {"measurement": "inhibition of stretch-induced Akt phosphorylation", "setting": "Akt", "value": "84+14%"}, {"measurement": "inhibition of stretch-induced VEGF mRNA expression", "setting": "VEGF mRNA", "value": "87±12", "unit": "%"}, {"measurement": "effect on basal VEGF mRNA expression", "setting": "VEGF mRNA", "value": "without altering"}]}
{"compound": "VEGF", "values": [{"measurement": "increase of VEGF-stimulated thymidine uptake by cyclic stretch", "setting": "[1]; BREC, cyclic stretch plus VEGF", "value": "2.6+/−0.2 fold"}, {"measurement": "increase in 3H-thymidine uptake", "setting": "[1]; cyclic stretching in combination with exogenous VEGF (25 ng/ml)", "value": "257±21", "unit": "%"}, {"measurement": "effect on 3H-thymidine uptake", "setting": "[1]; exogenous VEGF alone, no stretch", "value": "no significant effect"}]}
{"compound": "COc1cccc(-c2cc(=O)c3ccccc3o2)c1N", "note": "[PD98059]", "values": [{"measurement": "effect on stretch-induced Akt phosphorylation", "setting": "Akt", "value": "little effect"}, {"measurement": "effect on stretch-induced VEGF mRNA expression", "setting": "VEGF mRNA", "value": "little effect; also recorded: not suppressed"}, {"measurement": "effect on basal VEGF mRNA expression", "setting": "VEGF mRNA", "value": "little effect"}]}
{"compound": "O=c1cc(N2CCOCC2)oc2c(-c3ccccc3)cccc12", "note": "[LY294002]", "values": [{"measurement": "inhibition of stretch-induced Akt phosphorylation", "setting": "Akt", "value": "119+14%"}, {"measurement": "inhibition of stretch-induced VEGF mRNA expression", "setting": "VEGF mRNA", "value": "85±20", "unit": "%"}]}
{"compound": "CCOc1nc2cccc(C(=O)OC(C)OC(=O)OC3CCCCC3)c2n1Cc1ccc(-c2ccccc2-c2nn[nH]n2)cc1", "note": "(stereo not drawn) [candesartan cilexetil]", "values": [{"measurement": "effect on hypertension-induced elevation of retinal VEGF mRNA", "setting": "retinal VEGF mRNA", "value": "blocked"}, {"measurement": "effect on blood pressure", "setting": "[2]", "value": "normalization"}, {"measurement": "effect on hypertension-induced elevation of retinal KDR mRNA", "setting": "retinal KDR mRNA", "value": "blocked"}, {"measurement": "effect on hypertension-induced elevation of retinal KDR mRNA", "setting": "retinal KDR mRNA; listed as candesartan", "value": "returned to baseline levels"}, {"measurement": "effect on angiotensin II-induced KDR mRNA", "setting": "KDR mRNA [3]; angiotensin II stimulation", "value": "blocked"}, {"measurement": "effect on cyclic stretch-induced KDR mRNA expression", "setting": "KDR mRNA [4]", "value": "not significantly affected"}, {"measurement": "effect on cyclic stretch-induced KDR mRNA expression", "setting": "KDR mRNA [4]; listed as candesartan", "value": "not inhibited"}]}
{"compound": "C[C@H](CS)C(=O)N1CCC[C@H]1C(=O)O", "note": "[captopril]", "values": [{"measurement": "effect on hypertension-induced elevation of retinal VEGF mRNA", "setting": "retinal VEGF mRNA", "value": "blocked"}, {"measurement": "effect on blood pressure", "setting": "[2]", "value": "normalization"}, {"measurement": "effect on hypertension-induced elevation of retinal KDR mRNA", "setting": "retinal KDR mRNA", "value": "blocked; also recorded: returned to baseline levels"}]}
{"compound": "angiotensin II (DRVYIHPF; Angiotensin-2; UniProt P01019 25-32, looked up) [peptide that induces KDR mRNA through the AT1 receptor]", "values": [{"measurement": "KDR mRNA induction", "setting": "KDR mRNA [3]", "value": "induces"}]}
{"compound": "CN(C)CCCn1cc(C2=C(c3c[nH]c4ccccc34)C(=O)NC2=O)c2ccccc21", "note": "[GF109203X]", "values": [{"measurement": "effect on stretch-induced ERK1/2 phosphorylation", "setting": "ERK1/2", "value": "inhibition"}, {"measurement": "effect on stretch-induced VEGF mRNA expression", "setting": "VEGF mRNA", "value": "did not alter"}]}
